Data on eight compounds can be found in patent US20230265167A1, “COMPOSITIONS HAVING NEUROREGENERATIVE APPLICATIONS” (GRIFOLS WORLDWIDE OPERATIONS LIMITED, priority 2020, published 2023).

One series has as its system SH-SY5Y cells. Put plainly: Neurite outgrowth (differentiation) in SH-SY5Y cells, Tubulin Tracker imaging. The class given is cell-based, human. Conditions: for neurite outgrowth or differentiation: FIG. 5. As to the method:
Transferrin is utilized in cell culture and in-vivo to deliver iron as a nutrient to cells. This is typically accomplished through the actions of holo-transferrin (HoloTf) binding to, and endocytosis by, its cognate receptor CD71, the transferrin receptor 1 (TfR1). Transferrin is typically believed to provide cells with iron as a means to promote and sustain metabolic activity. […] Induction of neuronal differentiation was assessed by morphological parameters of neurite formation (a key element typically used as a marker of neuronal differentiation, neuronal health, and function) according to the procedures of Agholme, 2010. J. of Alzheimer's Disease. Vol. 20:1p 069-108; and Dyberg et al., 2017. PNAS Vol 114 (32), E6603-E6612.
Undifferentiated SH-SY5Y cells were seeded into 96 well clear bottom plates in media containing 0.1% FBS. A serum-free base media was utilized as recommended by the supplier for SH-SY5Y cells (Sigma, Cat #94030304-1VL). Twenty-four hours after seeding cells, a 3× stock solution of ApoTf, final concentrations indicated on the x-axis, in serum free base media was added to the cells. ApoTf was obtained and purified from pooled human plasma and dosed at a final concentration of 0.2 mg/mL.
Cells were allowed to differentiate for 6 days. Neurite growth was assessed by imaging and image analysis. At the time of analysis, a 10× solution of Tubulin Tracker (Molecular Probes, T34075) and Hoechst 33342 (Molecular Probes #H3570) nuclear stain was prepared.
Briefly, Tubulin Tracker dissolved in DMSO was diluted 1:1 with Pluronic F-127 and further diluted into HBSS to generate a 10× solution. Hoechst 33342 was added to the HBSS-Tubulin Tracker solution at 10 μg/mL to generate a 10× nuclear stain. The 10× staining solution (10 μL) was added directly to treated assay wells and incubated at 37° C. for 30 minutes. Following incubation, 110 μL of 0.4% Trypan Blue was added directly to assay wells and imaged on a Molecular Devices Nano imaging instrument. Nine images/well were acquired in the blue (Nuclei) and green (Tubulin) fluorescent channels for each image.
After obtaining images, the MetaExpress Neurite Outgrowth analysis module (Molecular Devices) was used to identify cells, cell bodies, and quantify neurites. The total number of neurite branches were divided by the total number of cells imaged to account for different numbers of cells in each test well. The Outgrowth Fold Change was determined by setting the untreated control cells to a value of 1 with all other treatments shown relative to untreated control.
Undifferentiated SH-SY5Y cells were seeded and treated as described in Example 1. Neurite growth was assessed by imaging and image analysis. At the time of analysis, a 10× solution of Tubulin Tracker (Molecular Probes, T34075) and Hoechst 33342 (Molecular Probes #H3570) nuclear stain was prepared. Briefly, Tubulin Tracker dissolved in DMSO was diluted 1:1 with Pluronic F-127 and further diluted into HBSS to generate a 10× solution. Hoechst 33342 was added to the HBSS-Tubulin Tracker solution at 10 μg/mL to generate at 10× nuclear stain. The 10× staining solution (10 μL) was added directly to treated assay wells and incubated at 37° C. for 30 minutes. Following incubation, 110 μL of 0.4% Trypan Blue was added directly to assay wells and imaged on a Molecular Devices Nano imaging instrument. Nine images/well were acquired in the blue (Nuclei) and green (Tubulin) fluorescent channels for each image. After obtaining images, the MetaExpress Neurite Outgrowth analysis module (Molecular Devices) was used to identify cell bodies and quantify neurites. The total number of neurite branches were divided by the total number of cells imaged to account for different numbers of cells. The Outgrowth Fold Change was determined by setting the untreated control to a value of 1 with all other treatments shown relative to untreated control. ApoTf was obtained and purified from pooled human plasma and dosed at a final concentration of 0.2 mg/mL. […]

For another series, the system named is HIF-1α. The note with it: cited from earlier work.
A short description of series [1]: Iron saturation by ICP-AES. Format: physicochemical. The text has this:
The skilled person will appreciate that transferrin iron saturation levels can be readily determined without undue burden by quantifying the total iron levels in a sample having a known transferrin concentration. The total iron levels in sample can be measured by any one of a number of methods know by those of skill in the art. Suitable examples include: • Colorimetric assays—Iron is quantitated by measuring the intensity of the violet complex formed in the reaction between ferrozine and Fe^2+ in acetate buffer at 562 nm. Thiourea or other chemicals can be added to complex contaminant metals such Cu^2+, which can also bind with ferrozine and yield falsely elevated iron values. See Ceriotti et al., Improved direct specific determination of serum iron and total iron-binding capacity Clin Chem. 1980, 26(2), 327-31, the contents of which are incorporated herein by reference. • Inductively Coupled Plasma Atomic Emission Spectroscopy (ICP-AES)—is an emission spectroscopy technique that quantifies the mass percentage of metals in a sample. ICP-AES is based on the excitation of metal atoms/ions in the sample using a plasma (an ionized gas consisting of positive ions and free electrons) and analyzing the emission wavelength of the electromagnetic radiation, which is typical of that particular metal. Even though the technique is a standard analytical technique within common general knowledge of the skilled person, further information on ICP-AES can be found in Manley et al., Simultaneous Cu-, Fe-, and Zn-specific detection of metalloproteins contained in rabbit plasma by size-exclusion chromatography-inductively coupled plasma atomic emission spectroscopy. J Biol Inorg Chem. 2009, 14, 61-74, the contents of which are incorporated herein by reference.
The preferred method of determining the iron content of a sample for the purposes of the therapeutic method of the present invention is ICP-AES. The iron saturation of transferrin is then calculated based on the transferrin protein concentration, total iron content of the sample, and the fact that wild type transferrin has two iron-binding sites. Wild type human transferrin (molecular weight 79,750) can bind two iron atoms such that a sample containing 1 g of transferrin would be 100% saturated by 1.4 mg of iron.
Protein purity was determined by SDS-PAGE. Iron saturation levels were determined using ICP-AES in accordance with the procedures outlined in Manley et al., J Biol Inorg Chem (2009) 14:61-74, the contents of which are incorporated herein by reference.

“Also recorded” adds a separate entry of the source. Structures can show the parent of a compound that is named as a salt.

On to `CC(=O)N(O)CCCCCNC(=O)CCC(=O)N(O)CCCCCNC(=O)CCC(=O)N(O)CCCCCN` [DFO, Deferoxamine mesylate, reference compound], for which the “neurite outgrowth / differentiation versus concentration” value with SH-SY5Y cells (FIG. 3A, DFO versus ApoTf) is reported as “little neurite formation beyond that concentration”.

For `O=C(O)CNC(=O)c1c(O)c2ccccc2n(Cc2ccccc2)c1=O` [IOX2, N-[[1,2-Dihydro-4-hydroxy-2-oxo-1-(phenylmethyl)-3-quinolinyl]carbonyl]glycine, reference compound], the “neurite outgrowth or differentiation” value with SH-SY5Y cells is “no neurite outgrowth or differentiation was observed”; in the series on SH-SY5Y cells (4 μM) it was “no effect was observable”. Besides, in the series on HIF-1α (undifferentiated SH-SY5Y), the “concentration inducing up-regulation of HIF-1α” value was 1 µM.

Turning to `C[C@@H](N)[C@H]1CC[C@H](C(=O)Nc2ccncc2)CC1.Cl.Cl` [Y-27632, trans-4-[(1R)-1-Aminoethyl]-N-4-pyridinylcyclohexanecarboxamide dihydrochloride, reference compound], the “neurogenic effect, alone” value with SH-SY5Y cells (FIG. 8, 50 μM) is reported as “strongly neurogenic”.

Regarding “ApoTransferrin A: ApoTf preparation, Grifols - prepared in house”, the “Iron Saturation (%)” value in series [1] worked out at 0.27%.

Take “ApoTransferrin B: ApoTf preparation, Grifols - prepared in house”: the “Iron Saturation (%)” value in series [1] amounted to 0.59%.

For the compound “ApoTransferrin C: ApoTf preparation, Grifols - prepared in house”, the “Iron Saturation (%)” value in series [1] is 0.24%.

For “HoloTransferrin: the iron-saturated form of transferrin, purified from pooled human plasma”, the “neurogenesis / differentiation of SH-SY5Y” value in the series with SH-SY5Y cells (FIG. 4, proteins at 0.2 mg/mL, listed as HoloTf) is listed as “unable to induce differentiation; also recorded: lack of neurogenesis”. Besides, in series [1], the “Iron Saturation (%)” value was determined as 100%. For the same compound, the HIF-1α production entry in the series with HIF-1α (reported in US2016008437) was “can induce HIF-1α production”.

With “recombinant ApoTf: recombinant wild-type human transferrin, SEQ ID NO: 1, expressed in 293-6E cells”, the “neurogenesis (neurite outgrowth) of SH-SY5Y” value in the series with SH-SY5Y cells (FIG. 3B, proteins at 0.2 mg/mL) is given as “did induce neurogenesis”.
